Source: PubChem BioAssay AID256 (DTP/NCI, 2004)
Values joined by “and” are separate entries in the source; they are usually repeats but may differ in a detail not shown here. Equal values may be shown once. Inconclusive results and toxic doses are left out.

Tested on: CD2F1 mice, L1210 leukemia ip, survival T/C
Test: NCI In Vivo Anticancer Drug Screen. Data for tumor model L1210 Leukemia (intraperitoneal) in CD2F1 (CDF1) mice
Conditions: higher = longer survival
Summary of the method: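 Activity against a transplanted murine tumor was judged by comparing the compound group with a vehicle group. The outcome in the treated animals was divided by that in the controls.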

[1] = endpoint: mean survival time, dose: 100.0 mg/kg/injection, schedule: Q04DX003 (ip), vehicle: saline with Tween-80
[2] = endpoint: mean survival time, dose: 200.0 mg/kg/injection, schedule: Q04DX003 (ip), vehicle: saline with Tween-80
[3] = endpoint: mean survival time, dose: 400.0 mg/kg/injection, schedule: Q04DX003 (ip), vehicle: saline with Tween-80
[4] = endpoint: mean survival time, dose: 12.5 mg/kg/injection, schedule: Q01DX005 (ip), vehicle: distilled water + Tween-80
[5] = endpoint: mean survival time, dose: 25.0 mg/kg/injection, schedule: Q01DX005 (ip), vehicle: distilled water + Tween-80
[6] = endpoint: mean survival time, dose: 50.0 mg/kg/injection, schedule: Q01DX005 (ip), vehicle: distilled water + Tween-80
[7] = endpoint: mean survival time, dose: 100.0 mg/kg/injection, schedule: Q01DX005 (ip), vehicle: distilled water + Tween-80
[8] = endpoint: mean survival time, dose: 100.0 mg/kg/injection, schedule: Q04DX002 (ip), vehicle: saline with Tween-80
[9] = endpoint: mean survival time, dose: 200.0 mg/kg/injection, schedule: Q04DX002 (ip), vehicle: saline with Tween-80
[10] = endpoint: mean survival time, dose: 100.0 mg/kg/injection, schedule: Q01DX009 (ip), vehicle: saline with Tween-80
[11] = endpoint: mean survival time, dose: 200.0 mg/kg/injection, schedule: Q01DX009 (ip), vehicle: saline with Tween-80
[12] = endpoint: mean survival time, dose: 400.0 mg/kg/injection, schedule: Q01DX009 (ip), vehicle: saline with Tween-80

Cc1cn(CC(=O)C2(O)CCC3C4CCC5=CC(=O)CCC5(C)C4C(=O)CC32C)c(=O)[nH]c1=O (configuration not stated)
T/C (endpoint: mean survival time, dose: 12.5 mg/kg/injection, schedule: Q04DX003 (ip), vehicle: Klucel (hydroxypropylcellulose) (HPC)): 94 % of control
T/C (endpoint: mean survival time, dose: 25.0 mg/kg/injection, schedule: Q04DX003 (ip), vehicle: Klucel (hydroxypropylcellulose) (HPC)): 105 % of control
T/C (endpoint: mean survival time, dose: 50.0 mg/kg/injection, schedule: Q04DX003 (ip), vehicle: Klucel (hydroxypropylcellulose) (HPC)): 94 % of control
T/C (endpoint: mean survival time, dose: 100.0 mg/kg/injection, schedule: Q04DX003 (ip), vehicle: Klucel (hydroxypropylcellulose) (HPC)): 94 % of control
T/C (endpoint: mean survival time, dose: 200.0 mg/kg/injection, schedule: Q04DX003 (ip), vehicle: Klucel (hydroxypropylcellulose) (HPC)): 94 % of control

NNc1nnc(Cl)cc1N
T/C [1]: 109 % of control

CCOC(=O)C(Br)(Br)C(=O)OCC
T/C (endpoint: mean survival time, dose: 6.25 mg/kg/injection, schedule: Q01DX009 (ip), vehicle: saline with Tween-80): 99 % of control
T/C (endpoint: mean survival time, dose: 12.5 mg/kg/injection, schedule: Q01DX009 (ip), vehicle: saline with Tween-80): 99 % of control
T/C (endpoint: mean survival time, dose: 25.0 mg/kg/injection, schedule: Q01DX009 (ip), vehicle: saline with Tween-80): 99 % of control

Cc1ccc(S(=O)(=O)N(Cc2ccc(Cl)cc2)N2CCOC2=O)cc1
T/C (endpoint: mean survival time, dose: 50.0 mg/kg/injection, schedule: Q01DX009 (ip), vehicle: Klucel (hydroxypropylcellulose) (HPC)): 92 % of control
T/C (endpoint: mean survival time, dose: 100.0 mg/kg/injection, schedule: Q01DX009 (ip), vehicle: Klucel (hydroxypropylcellulose) (HPC)): 93 % of control
T/C (endpoint: mean survival time, dose: 200.0 mg/kg/injection, schedule: Q01DX009 (ip), vehicle: Klucel (hydroxypropylcellulose) (HPC)): 98 % of control

CC[C@@]1(O)C(=O)OCc2c1cc1n(c2=O)Cc2cc3c(N)cccc3nc2-1
T/C (endpoint: median survival time, dose: 0.25 mg/kg/injection, schedule: Q01DX005 (ip), vehicle: saline with Tween-80): 168 % of control
T/C (endpoint: median survival time, dose: 0.3 mg/kg/injection, schedule: Q01DX005 (ip), vehicle: saline with Tween-80): 150 % of control
T/C (endpoint: median survival time, dose: 0.5 mg/kg/injection, schedule: Q01DX005 (ip), vehicle: saline with Tween-80): 182 % of control and 223 % of control
T/C (endpoint: median survival time, dose: 0.63 mg/kg/injection, schedule: Q04DX002 (ip), vehicle: saline with Tween-80): 202 % of control
T/C (endpoint: median survival time, dose: 0.84 mg/kg/injection, schedule: Q01DX005 (ip), vehicle: saline with Tween-80): 182 % of control
T/C (endpoint: median survival time, dose: 1.0 mg/kg/injection, schedule: Q01DX005 (ip), vehicle: saline with Tween-80): 108 % of control
T/C (endpoint: median survival time, dose: 1.25 mg/kg/injection, schedule: Q04DX002 (ip), vehicle: saline with Tween-80): 228 % of control
T/C (endpoint: median survival time, dose: 1.39 mg/kg/injection, schedule: Q01DX005 (ip), vehicle: saline with Tween-80): 365 % of control
T/C (endpoint: median survival time, dose: 2.0 mg/kg/injection, schedule: Q01DX005 (ip), vehicle: saline with Tween-80): 87 % of control
T/C (endpoint: median survival time, dose: 2.32 mg/kg/injection, schedule: Q01DX005 (ip), vehicle: saline with Tween-80): 121 % of control
T/C (endpoint: median survival time, dose: 2.5 mg/kg/injection, schedule: Q04DX002 (ip), vehicle: saline with Tween-80): 348 % of control and 361 % of control
T/C (endpoint: median survival time, dose: 5.0 mg/kg/injection, schedule: Q04DX002 (ip), vehicle: saline with Tween-80): 220 % of control and 361 % of control
T/C (endpoint: median survival time, dose: 10.0 mg/kg/injection, schedule: Q04DX002 (ip), vehicle: saline with Tween-80): 93 % of control

Cc1cccc(N2C(=O)CSC2=S)c1
T/C [1]: 92 % of control
T/C [2]: 88 % of control
T/C [3]: 95 % of control

C/C(=C\C(=O)C(C)(C)C)C(C)(C)C
T/C (endpoint: mean survival time, dose: 100.0 mg/kg/injection, schedule: Q01DX001 (ip), vehicle: saline with Tween-80): 93 % of control
T/C (endpoint: mean survival time, dose: 200.0 mg/kg/injection, schedule: Q01DX001 (ip), vehicle: saline with Tween-80): 96 % of control
T/C (endpoint: mean survival time, dose: 400.0 mg/kg/injection, schedule: Q01DX001 (ip), vehicle: saline with Tween-80): 96 % of control

Nc1nc2c(nc(N3CCCC3)n2C2OC(CO)C(O)C2O)c(=O)[nH]1 (configuration not stated)
T/C [4]: 100 % of control
T/C [5]: 102 % of control
T/C [6]: 98 % of control
T/C [7]: 100 % of control
T/C (endpoint: mean survival time, dose: 200.0 mg/kg/injection, schedule: Q01DX005 (ip), vehicle: distilled water + Tween-80): 100 % of control

CC1=C(Br)C(=O)C(C(O)(C(F)(F)F)C(F)(F)F)C(C)(C)C1 (configuration not stated)
T/C [1]: 96 % of control
T/C [2]: 96 % of control

O=[N+]([O-])c1ccccc1-c1n[nH]c2ccccc12
T/C (endpoint: mean survival time, dose: 25.0 mg/kg/injection, schedule: Q04DX002 (ip), vehicle: saline with Tween-80): 113 % of control
T/C (endpoint: mean survival time, dose: 50.0 mg/kg/injection, schedule: Q04DX002 (ip), vehicle: saline with Tween-80): 106 % of control
T/C [8]: 106 % of control
T/C [9]: 110 % of control

NN1C(=O)Cc2ccccc2C1=O
T/C [10]: 103 % of control
T/C [11]: 109 % of control
T/C [12]: 105 % of control

CC12CCC3C(CC=C4CC(OC(=N)N)CCC43C)C1CCC2=O (configuration not stated)
T/C (endpoint: mean survival time, dose: 75.0 mg/kg/injection, schedule: Q01DX001 (ip), vehicle: saline): 98 % of control
T/C (endpoint: mean survival time, dose: 150.0 mg/kg/injection, schedule: Q01DX001 (ip), vehicle: saline): 101 % of control

CCCn1cnc2c(=S)nc[nH]c21
T/C (endpoint: mean survival time, dose: 150.0 mg/kg/injection, schedule: Q01DX Z (ip), vehicle: carboxymethylcellulose (CMC)): 119 % of control
T/C (endpoint: mean survival time, dose: 150.0 mg/kg/injection, schedule: Q04DX003 (ip), vehicle: saline with Tween-80): 150 % of control
T/C (endpoint: mean survival time, dose: 200.0 mg/kg/injection, schedule: Q01DX Z (ip), vehicle: carboxymethylcellulose (CMC)): 95 % of control
T/C (endpoint: mean survival time, dose: 300.0 mg/kg/injection, schedule: Q04DX003 (ip), vehicle: saline with Tween-80): 161 % of control
T/C (endpoint: mean survival time, dose: 600.0 mg/kg/injection, schedule: Q04DX003 (ip), vehicle: saline with Tween-80): 111 % of control

CC(C)(C)C1SCC(CO)CS1 (configuration not stated)
T/C [8]: 97 % of control
T/C [9]: 102 % of control
T/C (endpoint: mean survival time, dose: 400.0 mg/kg/injection, schedule: Q04DX002 (ip), vehicle: saline with Tween-80): 91 % of control

CC(=O)OCC(C(=O)OC1CC2C3OC3C(C1)N2C)c1ccccc1 (configuration not stated)
T/C (endpoint: median survival time, dose: 12.5 mg/kg/injection, schedule: Q04DX003 (ip), vehicle: saline): 100 % of control
T/C (endpoint: median survival time, dose: 25.0 mg/kg/injection, schedule: Q04DX003 (ip), vehicle: saline): 100 % of control
T/C (endpoint: median survival time, dose: 50.0 mg/kg/injection, schedule: Q04DX003 (ip), vehicle: saline): 88 % of control
T/C (endpoint: median survival time, dose: 100.0 mg/kg/injection, schedule: Q04DX003 (ip), vehicle: saline): 88 % of control

O=C(c1ccccc1)c1cn(C2CCCCC2)c(-c2ccccc2)c1NC1CCCCC1
T/C [1]: 87 % of control
T/C [2]: 87 % of control
T/C [3]: 94 % of control

O=c1[nH]c2c(ncn2C2OC3COP(=O)(O)OC3C2O)c2nccn12 (configuration not stated)
T/C [4]: 97 % of control
T/C [5]: 97 % of control
T/C [6]: 97 % of control
T/C [7]: 100 % of control

C1CNC2NCCNC2N1 (configuration not stated)
T/C [10]: 101 % of control
T/C (endpoint: mean survival time, dose: 100.0 mg/kg/injection, schedule: Q04DX003 (ip), vehicle: saline sonified): 109 % of control
T/C [11]: 102 % of control
T/C (endpoint: mean survival time, dose: 200.0 mg/kg/injection, schedule: Q04DX003 (ip), vehicle: saline sonified): 103 % of control
T/C [12]: 108 % of control
T/C (endpoint: mean survival time, dose: 400.0 mg/kg/injection, schedule: Q04DX003 (ip), vehicle: saline sonified): 115 % of control

O=C(O)CC(CC(=O)O)C(=O)O
T/C (endpoint: mean survival time, dose: 100.0 mg/kg/injection, schedule: Q04DX003 (ip), vehicle: saline): 101 % of control
T/C (endpoint: mean survival time, dose: 200.0 mg/kg/injection, schedule: Q04DX003 (ip), vehicle: saline): 103 % of control
T/C (endpoint: mean survival time, dose: 400.0 mg/kg/injection, schedule: Q04DX003 (ip), vehicle: saline): 101 % of control

CCN=C(NCC)SCCSC(=NCC)NCC
T/C [8]: 104 % of control
T/C [9]: 102 % of control

CN(C)c1ccc(/C=C/c2nc(N)nc(N)c2[N+](=O)[O-])cc1
T/C (endpoint: mean survival time, dose: 25.0 mg/kg/injection, schedule: Q01DX009 (ip), vehicle: water): 98 % of control
T/C (endpoint: mean survival time, dose: 50.0 mg/kg/injection, schedule: Q01DX009 (ip), vehicle: water): 97 % of control
T/C (endpoint: mean survival time, dose: 100.0 mg/kg/injection, schedule: Q01DX009 (ip), vehicle: water): 97 % of control
T/C (endpoint: mean survival time, dose: 200.0 mg/kg/injection, schedule: Q01DX009 (ip), vehicle: water): 92 % of control
T/C (endpoint: mean survival time, dose: 400.0 mg/kg/injection, schedule: Q01DX009 (ip), vehicle: water): 90 % of control
